Data set [1] concerns maltose/trehalose converting enzymes. The following applies: one mM; cited from earlier work.
In a further data set the target is α-glucosidase from yeast (Saccharomyces cerevisiae, UniProt P53341). Kind of data set: Hydrolysis by enzyme: α-glucosidase. It counts as biochemical. The following applies: into glucose and fructose. As to the method: (§1) To identify the substance "X", the following confirmation tests were conducted using a high purity saccharide powder containing trehalulose prepared in Experiment 8: […]
Chain of α-glucosidase from yeast (P53341 whole entry): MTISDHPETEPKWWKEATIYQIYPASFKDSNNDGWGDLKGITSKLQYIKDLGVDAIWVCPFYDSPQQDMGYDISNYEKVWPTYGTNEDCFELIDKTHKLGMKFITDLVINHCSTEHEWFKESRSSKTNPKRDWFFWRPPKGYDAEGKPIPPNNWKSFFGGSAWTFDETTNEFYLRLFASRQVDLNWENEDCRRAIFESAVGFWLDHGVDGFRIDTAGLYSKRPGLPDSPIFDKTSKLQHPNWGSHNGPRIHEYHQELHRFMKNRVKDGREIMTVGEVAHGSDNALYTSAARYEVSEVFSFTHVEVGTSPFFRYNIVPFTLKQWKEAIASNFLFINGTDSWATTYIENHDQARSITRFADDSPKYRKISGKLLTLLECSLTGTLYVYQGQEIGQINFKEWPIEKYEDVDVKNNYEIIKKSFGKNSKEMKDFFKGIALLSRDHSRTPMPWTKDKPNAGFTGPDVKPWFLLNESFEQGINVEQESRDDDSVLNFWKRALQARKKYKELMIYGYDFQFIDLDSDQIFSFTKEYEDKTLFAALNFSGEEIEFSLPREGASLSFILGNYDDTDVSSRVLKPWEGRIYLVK

Another data set concerns the target T1, invertase from yeast (Saccharomyces cerevisiae, UniProt P00724).
T1 sequence (P00724 20-532): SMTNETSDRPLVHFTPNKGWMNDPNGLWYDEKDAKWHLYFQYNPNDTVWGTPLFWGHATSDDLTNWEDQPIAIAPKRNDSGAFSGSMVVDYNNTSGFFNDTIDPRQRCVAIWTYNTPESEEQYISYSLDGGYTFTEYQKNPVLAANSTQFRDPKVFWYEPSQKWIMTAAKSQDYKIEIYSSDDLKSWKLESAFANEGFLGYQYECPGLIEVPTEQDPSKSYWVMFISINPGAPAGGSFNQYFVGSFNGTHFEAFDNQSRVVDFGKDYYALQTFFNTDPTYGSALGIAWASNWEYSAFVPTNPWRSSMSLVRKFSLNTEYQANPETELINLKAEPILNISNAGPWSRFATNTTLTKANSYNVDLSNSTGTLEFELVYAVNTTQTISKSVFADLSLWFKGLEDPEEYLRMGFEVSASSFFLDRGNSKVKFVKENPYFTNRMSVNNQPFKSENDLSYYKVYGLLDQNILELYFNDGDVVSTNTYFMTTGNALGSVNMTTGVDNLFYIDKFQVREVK
Kind of data set: Hydrolysis by enzyme: invertase. It counts as biochemical. On the procedure:
as §1

The conditions of data set [2]: in vivo, po.
Description: In accordance with the method as reported by H. Atsuji et al. in "Journal of Clinical Nutrition", Vol.41, No.2, pp.200-208 (1972), 30 g of the saccharide powder rich in trehalulose with a purity of 98%, d.s.b., in Experiment 8 was prepared into a 20 w/v % aqueous solution which was then orally administered to 3 healthy male volunteers, and their blood were sampled at a prescribed time interval, followed by assaying the blood sugar- and insulin-levels. As a control glucose was used.
For the next data set, the system named is dd-strain mice. As to the kind of experiment: Acute toxicity test. The class given is in vivo. As to conditions: oral, 7-week-old, higher dose test impossible. An excerpt:
No mouse died up to a dose of 15 g/kg mouse by weight and a higher dose test was impossible. Thus the toxicity of the saccharide is extremely low.

Molecules are shown by their SMILES. Counter-ions that a name gives are not always drawn.

Take `[Hg+2]` [Hg^++]: the “Inhibition of enzyme activity” value in data set [1] is reported as “inhibited”.
With `NC(CO)(CO)CO` [Tris-HCl buffer], in data set [1], the “Inhibition of enzyme activity” value is on record as “inhibited”.
For the molecule `O=C(CO[C@H]1O[C@H](CO)[C@@H](O)[C@H](O)[C@H]1O)[C@@H](O)[C@H](O)[C@H](O)CO` [Trehalulose, 1-O-α-D-glucopyranosyl-D-fructose], the “Hydrolysis by α-glucosidase from yeast” value at α-glucosidase from yeast is reported as “Hydrolyzed”. The “Hydrolysis by an invertase from yeast” value on invertase from yeast is on record as “Not hydrolyzed”. In addition, in data set [2], the “Time of highest blood sugar-level after the administration” value was in the range of 0.5 to 1 h and the “Time of highest insulin-level after the administration” value is 0.5 to 1 h. Further, the “Acute toxicity: lethal dose (no mouse died up to this dose)” value in the data set on dd-strain mice is > 15000 mg/kg.
For `[Cu+2]` [Cu^++], the “Inhibition of enzyme activity” value in data set [1] is on record as “inhibited”.
